Data taken from US11865176B2, “Compositions and methods of modulating anti-tumor immunity” (Dana-Farber Cancer Institute, Inc., priority 2016, dated 2024).
Structures can show the parent of a compound that is named as a salt.

How the values were obtained:
[1] = target: T1, regulatory domain of human NFATc3 (residues 1-400) (UniProt Q12968)
T1 sequence: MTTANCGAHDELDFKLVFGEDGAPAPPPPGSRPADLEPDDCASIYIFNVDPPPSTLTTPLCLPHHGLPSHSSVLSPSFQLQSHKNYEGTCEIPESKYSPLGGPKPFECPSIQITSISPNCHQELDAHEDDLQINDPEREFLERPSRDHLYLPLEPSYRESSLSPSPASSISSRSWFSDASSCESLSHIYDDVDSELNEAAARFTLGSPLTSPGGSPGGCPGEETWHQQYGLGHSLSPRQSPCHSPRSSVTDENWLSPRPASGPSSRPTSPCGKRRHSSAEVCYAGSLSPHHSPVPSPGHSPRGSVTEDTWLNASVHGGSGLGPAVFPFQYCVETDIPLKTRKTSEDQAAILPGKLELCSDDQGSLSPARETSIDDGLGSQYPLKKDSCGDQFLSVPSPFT

[2] = tested on: PD-1-overexpressing Jurkat cells; assay: Small molecule screen: IL2 secretion (AlphaLISA) from stimulated PD-1-overexpressing Jurkat cells; type: cell-based, human; conditions: 3.3 μM compound; for Zscore_1 / Zscore_2: IL2 level, α-CD3/α-CD28/α-PD-1 beads; for Zscore_1: replicate 1; for Zscore_2: replicate 2; for Zscore_AVG: average of replicate Z scores
Procedure, shortened: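 Cells (100,000/well) with compound at 3.3 μM final, stimulated by α-CD3/α-CD28/α-PD-1 Dynabeads at an 8:1 bead:cell ratio. IL2 in supernatants measured by AlphaLISA. Hits scored ≥3 SD from the mean of DMSO-treated, α-PD-1-bead-stimulated controls.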

Compound | in vitro phosphorylation of 15N-labeled NFATc3 (1-400), followed by 2D 15N-HSQC NMR [1] | Zscore_1 [2] | Zscore_2 [2] | Zscore_AVG [2]
recombinant CDK4/cyclin D1 | However, this did not occur when NFAT4 was incubated with CDK4 | – | – | –
COc1ccc(Cl)cc1NC(=O)Nc1cc(C)nc2ccccc12 [IGF-1R Inhibitor II] | – | 0.516 | −0.987 | −0.2355
O=C1NCCc2[nH]c(-c3ccnc(-c4cnc5ccccc5c4)c3)cc21 [MK-2 Inhibitor III] | – | −4.419 | −7.061 | −5.74
O=[N+]([O-])c1ccc(CNc2nc(NCc3cccc(C(F)(F)F)c3)nc3nc[nH]c23)cc1 [IP3K Inhibitor] | – | 1.006 | −0.0969 | 0.4547
Nc1ccc(-c2cccc3c(=O)cc(N4CCOCC4)oc23)cc1 [LY 294002,4-NH2] | – | 3.33 | 7.54 | 5.435
Nc1nccc(-c2c(-c3ccc(F)cc3)ncn2C2CCNCC2)n1 [SB 220025] | – | 14.69 | 27.59 | 21.14
Nc1[nH]nc2nc3ccccc3nc12 [Cdk1/5 Inhibitor] | – | −2.414 | −4.695 | −3.555
Cl.O=S(=O)(c1cccc2c(I)cccc12)N1CCCNCC1 [ML-7, Hydrochloride] | – | 2.906 | 0.08811 | 1.497
COc1ccc(CNC(=O)Nc2ncc([N+](=O)[O-])s2)cc1 [GSK-3b Inhibitor VIII] | – | 1.017 | 0.5916 | 0.8042
CC[C@@H](CO)Nc1nc(NCc2ccc(-c3ccccn3)cc2)c2ncn(C(C)C)c2n1 (single isomer, unassigned) [CR8, (S)-Isomer] | – | −10.2 | −10.59 | −10.39
Nc1ncnc2c1c(I)cn2[C@@H]1O[C@H](CO)[C@@H](O)[C@H]1O [5-Iodotubercidin] | – | −4.799 | −6.213 | −5.506
CCCCn1c2ccc(O)cc2c2c3c(c(-c4ccccc4Cl)cc21)C(=O)NC3=O [Wee1 Inhibitor II] | – | 0.7541 | −1.786 | −0.5162
O=C1NC(=O)c2cc(Nc3ccc(F)cc3)c(Nc3ccc(F)cc3)cc21 [PKCbII/EGFR Inhibitor] | – | −0.838 | 0.616 | −0.111
COc1cc2ncnc(Nc3cccc(O)c3)c2cc1OC [WHI-P180, Hydrochloride] | – | −4.627 | −4.112 | −4.37
COc1ccc2c(c[n+](C)c3c4cc5c(cc4ccc23)OCO5)c1OC [Chelerythrine Chloride] | – | 0.1826 | 0.07537 | 0.129
CC[C@H](CO)Nc1nc(NCc2ccc(-c3ccccn3)cc2)c2ncn(C(C)C)c2n1 (single isomer, unassigned) [CR8, (R)-Isomer] | – | −9.662 | −6.961 | −8.311
CaMKII Inhibitor, CK59 | – | −0.8337 | −0.5161 | −0.6749
O=C(Nc1cccc(Nc2cc(Nc3cccc(C(F)(F)F)c3)ncn2)c1)C1CC1 [EGFR Inhibitor] | – | 2.026 | 1.568 | 1.797
O=C1Cc2c([nH]c3ccc(Br)cc23)-c2ncccc2N1 [1-Azakenpaullone] | – | 0.418 | 1.913 | 1.165
COc1nccc(-c2c(-c3ccc(F)cc3)ncn2C2CCC(O)CC2)n1 (stereo not shown) [SB 239063] | – | −0.08397 | 1.041 | 0.4785
COc1cc(OC)c(C=C2C(O)=Nc3ccccc32)c(OC)c1 [IC261] | – | −0.7866 | −1.136 | −0.9616
O=C1NC(=O)/C(=C/c2ccc3nccnc3c2)S1 [PI 3-Kg Inhibitor] | – | 0.8957 | 2.23 | 1.563
NC(=O)c1ccc(-c2nc(-c3ccc4c(c3)OCCO4)c(-c3ccccn3)[nH]2)cc1 [Casein Kinase I Inhibitor, D4476] | – | −1.219 | 1.296 | 0.03862
NC(=O)c1ccc2nc(-c3ccc(Oc4ccc(Cl)cc4)cc3)[nH]c2c1 [Chk2 Inhibitor II] | – | 2.673 | 1.942 | 2.307
CCN(CC)C(=O)c1ccc(Nc2nc(OCC3CCCCC3)c3[nH]cnc3n2)cc1 [Cdk2 Inhibitor IV, NU6140] | – | −4.843 | −6.155 | −5.499
N#C/C(=C(/N)Sc1ccccc1N)c1cccc(C(O)c2ccncc2)c1 (stereo not shown) [MEK Inhibitor I] | – | −4.599 | −4.873 | −4.736
Oc1cccc(-c2nc(N3CCOCC3)c3oc4ncccc4c3n2)c1 [PI-103] | – | −0.718 | 0.8433 | 0.06265
